Reference: patent US20240300991A1, “NUCLEOSIDE DERIVATIVE HAVING MULTI-TARGET KINASE INHIBITORY ACTIVITY AND PHARMACEUTICAL COMPOSITION FOR PREVENTING AND TREATING CANCER COMPRISING SAME” (FUTURE MEDICINE CO., LTD., priority 2021, published 2024)

Assays:
[1] = tested on: PC-3 (prostate cancer cells); assay: Inhibitory activity against cancer cells (sulforhodamine B staining); assay type: cell-based; conditions: 3 days, SRB staining
Method: (§1) In order to examine the anticancer activity of the nucleoside derivatives of the present invention synthesized in the Preparation Examples, the ICso of each of A549 (lung cancer cells), HCT116 (colon cancer cells), MDA-MB-231 (breast cancer cells), SK-Hep-1 (liver cancer cells), SNU638 (stomach cancer cells) and PC-3 (prostate cancer cells) against cancer cells was measured.
(§2) The test method is as follows. Cells were allowed to stand for 1 day and set as a control on day 0. Further, after a test material was added to the cells, the cells were allowed to stand for 3 days. Thereafter, the cells were stained with 1% acetic acid and 0.4% sulforhodamine B. The stained cells were dried and dissolved in 10 mM Tris (pH 10.0). Absorbance was measured at 515 nm, and the degree of cell division was determined using the following equation. After calculation as Cell division (%)=(average absorbancetest material−average absorbanceday 0)/(average absorbance control-average absorbanceday 0)×100, the degree of cell division was calculated through a non-linear regression analysis using Table Curve 2D v5.01 (Systat Software Inc., San Jose, CA, USA).

DYRK1B = molecular target: T1, DYRK1B (Homo sapiens, UniProt Q9Y463); assay: Kinase inhibition test (DNA-tagged kinase, affinity resin, qPCR readout); assay type: binding; design: key: (−) indicates no effect; (+) indicates weak inhibitory activity; (++) indicates a moderate level of inhibitory activity; (+++) indicates strong inhibitory activity; conditions: 1 μM of compound
T1 construct: made in house
T1 sequence (Q9Y463 whole entry): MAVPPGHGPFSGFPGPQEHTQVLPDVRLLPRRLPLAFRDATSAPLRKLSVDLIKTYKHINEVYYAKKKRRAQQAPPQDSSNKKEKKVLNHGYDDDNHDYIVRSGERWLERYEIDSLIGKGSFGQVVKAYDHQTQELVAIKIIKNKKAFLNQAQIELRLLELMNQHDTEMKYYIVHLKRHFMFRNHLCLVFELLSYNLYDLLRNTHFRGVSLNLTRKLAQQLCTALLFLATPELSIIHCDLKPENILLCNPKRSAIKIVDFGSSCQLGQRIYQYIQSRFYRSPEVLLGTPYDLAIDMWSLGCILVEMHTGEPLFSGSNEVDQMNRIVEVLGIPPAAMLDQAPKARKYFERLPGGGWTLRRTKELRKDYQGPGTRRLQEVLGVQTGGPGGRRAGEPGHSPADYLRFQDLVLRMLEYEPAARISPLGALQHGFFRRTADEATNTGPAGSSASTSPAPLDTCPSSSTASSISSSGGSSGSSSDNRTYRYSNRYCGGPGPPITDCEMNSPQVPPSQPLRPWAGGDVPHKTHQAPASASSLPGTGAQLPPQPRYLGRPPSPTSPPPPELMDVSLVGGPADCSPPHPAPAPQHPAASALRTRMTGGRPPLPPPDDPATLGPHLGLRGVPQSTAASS
From the text: (§3) In order to examine the inhibitory activity of the nucleoside derivatives of the present invention synthesized in the Preparation Examples against kinases, the nucleoside derivatives were confirmed to have inhibitory activity against neurotrophic tyrosine kinase receptor type 1 or tropomyosin receptor kinase A (NTRK1), casein kinase 1 isoform delta (CSNK1D), dual specificity tyrosine-phosphorylation-regulated kinase 1A (DYRK1A), dual specificity tyrosine-phosphorylation-regulated kinase 1B (DYRK1B) and receptor-type tyrosine-protein kinase or fms like tyrosine kinase 3 or cluster of differentiation antigen 135 (CD135) or fetal liver kinase-2 (Flk2) (FLT3).
(§4) The inhibition measurement method is as follows. Most of the kinases were produced by culturing a phage in which BL21 E. coli was tagged with a kinase at 32° C. until lysis, followed by centrifugation and filtration. Further, the kinases were produced using HEK-293 cells. Thereafter, the kinases were DNA tagged for qPCR. After an affinity resin was prepared by stirring a biotin-tagged substrate onto streptavidin-coated beads for 30 minutes, a non-specifically bound substrate was washed with a buffer (SeaBlock (Pierce), 1% BSA, 0.05% Tween 20, 1 mM DTT).
(§5) For a kinase test, the kinase, the substrate, the affinity resin, and a test material dissolved in dimethyl sulfoxide were stirred together in a buffer (20% SeaBlock, 0.17×PBS, 0.05% Tween20, and 6 mM DTT) at room temperature for 1 hour. Thereafter, an affinity substrate was washed with a buffer (1×PBS, 0.05% Tween20), and then suspended in an elution buffer (1×PBS, 0.05% Tween20, 0.5 μM non-biotinylated affinity ligand), and the resulting suspension was stirred. The concentration of the kinase was quantified by qPCR.

DYRK1A = molecular target: T2, DYRK1A (Homo sapiens, UniProt Q13627); assay: as above; assay type: binding; design: key: (−) indicates no effect; (+) indicates weak inhibitory activity; (++) indicates a moderate level of inhibitory activity; (+++) indicates strong inhibitory activity; conditions: 1 μM of compound
T2 construct: made in house
From the text: as §3, §4, §5

NTRK1 = molecular target: T3, NTRK1 (Homo sapiens, UniProt P04629); assay: as above; assay type: binding; design: key: (−) indicates no effect; (+) indicates weak inhibitory activity; (++) indicates a moderate level of inhibitory activity; (+++) indicates strong inhibitory activity; conditions: 1 μM of compound
T3 construct: made in house
T3 sequence (P04629 33-796): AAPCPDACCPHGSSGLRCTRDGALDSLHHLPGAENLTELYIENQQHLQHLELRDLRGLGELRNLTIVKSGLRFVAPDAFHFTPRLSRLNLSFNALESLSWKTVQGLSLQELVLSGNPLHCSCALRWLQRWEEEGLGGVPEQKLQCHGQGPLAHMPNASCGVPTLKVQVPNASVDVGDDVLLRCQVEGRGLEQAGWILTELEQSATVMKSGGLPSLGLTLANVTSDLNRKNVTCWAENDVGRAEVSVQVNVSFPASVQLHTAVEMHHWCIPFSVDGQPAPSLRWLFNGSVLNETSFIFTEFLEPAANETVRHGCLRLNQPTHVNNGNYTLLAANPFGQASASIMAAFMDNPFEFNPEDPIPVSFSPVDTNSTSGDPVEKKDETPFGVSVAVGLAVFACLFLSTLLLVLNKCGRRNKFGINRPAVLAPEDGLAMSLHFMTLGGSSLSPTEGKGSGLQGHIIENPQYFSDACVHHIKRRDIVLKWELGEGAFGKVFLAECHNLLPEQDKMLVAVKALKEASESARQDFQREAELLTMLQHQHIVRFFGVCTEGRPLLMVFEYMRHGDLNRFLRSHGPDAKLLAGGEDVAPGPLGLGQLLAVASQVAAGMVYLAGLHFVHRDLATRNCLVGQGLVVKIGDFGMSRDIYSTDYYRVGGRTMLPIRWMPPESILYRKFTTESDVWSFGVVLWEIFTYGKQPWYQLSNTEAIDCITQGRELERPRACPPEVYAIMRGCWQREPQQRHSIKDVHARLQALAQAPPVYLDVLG
From the text: as §3, §4, §5

CSNK1D = molecular target: T4, CSNK1D (Homo sapiens, UniProt P48730); assay: as above; assay type: binding; design: key: (−) indicates no effect; (+) indicates weak inhibitory activity; (++) indicates a moderate level of inhibitory activity; (+++) indicates strong inhibitory activity; conditions: 1 μM of compound
T4 construct: made in house
T4 sequence (P48730 whole entry): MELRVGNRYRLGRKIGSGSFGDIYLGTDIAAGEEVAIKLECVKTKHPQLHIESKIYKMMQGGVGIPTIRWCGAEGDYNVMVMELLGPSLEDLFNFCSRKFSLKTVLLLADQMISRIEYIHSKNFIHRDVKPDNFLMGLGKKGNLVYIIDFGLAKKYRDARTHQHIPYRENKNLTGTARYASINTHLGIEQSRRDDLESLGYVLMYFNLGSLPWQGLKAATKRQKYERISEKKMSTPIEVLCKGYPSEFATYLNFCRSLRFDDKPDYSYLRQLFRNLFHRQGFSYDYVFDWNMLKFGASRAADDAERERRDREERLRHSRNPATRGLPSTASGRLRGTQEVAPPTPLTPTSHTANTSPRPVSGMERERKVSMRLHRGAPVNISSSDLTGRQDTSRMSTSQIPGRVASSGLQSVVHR
From the text: as §3, §4, §5

A549 (lung cancer cells) = assay: Inhibitory activity against cancer cells (sulforhodamine B staining); assay type: cell-based; conditions: 3 days, SRB staining
Method: as §1, §2

[2] = tested on: SK-Hep-1 (liver cancer cells); assay: as above; assay type: cell-based; conditions: 3 days, SRB staining
Method: as §1, §2

[3] = tested on: MDA-MB-231 (breast cancer cells); assay: as above; assay type: cell-based; conditions: 3 days, SRB staining
Method: as §1, §2

[4] = tested on: HCT116 (colon cancer cells); assay: as above; assay type: cell-based; conditions: 3 days, SRB staining
Method: as §1, §2

[5] = tested on: SNU638 (stomach cancer cells); assay: as above; assay type: cell-based; conditions: 3 days, SRB staining
Method: as §1, §2

| SMILES | IC50 ([1]; 72 h) | DYRK1B inhibitory activity (DYRK1B) | DYRK1A inhibitory activity (DYRK1A) | NTRK1 inhibitory activity (NTRK1) | CSNK1D inhibitory activity (CSNK1D) | IC50 (A549 (lung cancer cells)) | IC50 [2] | IC50 [3] | IC50 [4] | IC50 [5] | IC50 [1] | IC50 (A549 (lung cancer cells); Homo sapiens, 72 h) | IC50 ([2]; Homo sapiens, SK-HEP1, 72 h) | IC50 ([3]; Homo sapiens, 72 h) | IC50 ([4]; Homo sapiens, HCT-116, 72 h) | IC50 ([5]; Homo sapiens, SNU-638, 72 h) |
| --- | --- | --- | --- | --- | --- | --- | --- | --- | --- | --- | --- | --- | --- | --- | --- | --- |
| Nc1ncnc2c1c(-c1ccco1)cn2[C@@H]1S[C@H](CO)[C@@H](O)[C@H]1O [Compound 1a, (2R,3R,4S,5R)-2-(4-amino-5-(furan-2-yl)-7H-pyrrolo[2,3-d]pyrimidin-7-yl)-5-(hydroxymethyl)tetrahydrothiophene-3,4-diol] | 2460 nM | +++ | +++ | +++ | ++ |  |  |  |  |  |  |  |  |  |  |  |
| Nc1ncnc2c1c(-c1cccs1)cn2[C@@H]1S[C@H](CO)[C@@H](O)[C@H]1O [Compound 1b, (2R,3R,4S,5R)-2-(4-amino-5-(thiophen-2-yl)-7H-pyrrolo[2,3-d]pyrimidin-7-yl)-5-(hydroxymethyl)tetrahydrothiophene-3,4-diol] | 2480 nM | ++ | ++ | +++ | +++ |  |  |  |  |  |  |  |  |  |  |  |
| C#Cc1cn([C@@H]2S[C@H](CO)[C@@H](O)[C@H]2O)c2ncnc(N)c12 [Compound 3, (2R,3R,4S,5R)-2-(4-amino-5-ethynyl-7H-pyrrolo[2,3-d]pyrimidin-7-yl)-5-(hydroxymethyl)tetrahydrothiophene-3,4-diol] | 4 nM | +++ | +++ | ++ | ++ |  |  |  |  |  |  | 60 nM | 50 nM | 50 nM | 30 nM | 30 nM |
| N#Cc1cn([C@@H]2S[C@H](CO)[C@@H](O)[C@H]2O)c2ncnc(N)c12 [Compound 5, 4-amino-7-((2R,3R,4S,5R)-3,4-dihydroxy-5-(hydroxymethyl)tetrahydrothiophen-2-yl)-7H-pyrrolo[2,3-d]pyrimidine-5-carbonitrile] | 2180 nM | ++ | +++ | ++ | ++ |  |  |  |  |  |  | 2580 nM | 1790 nM | 2240 nM | 1590 nM | 1220 nM |
| NC(=O)c1cn([C@@H]2S[C@H](CO)[C@@H](O)[C@H]2O)c2ncnc(N)c12 [Compound 6, 4-amino-7-((2R,3R,4S,5R)-3,4-dihydroxy-5-(hydroxymethyl)tetrahydrothiophen-2-yl)-7H-pyrrolo[2,3-d]pyrimidine-5-carboxamide] | 1800 nM | ++ | +++ | + | ++ |  |  |  |  |  |  | 1990 nM | 1660 nM | 2100 nM | 1350 nM | 1130 nM |

Further lines, results first:

| IC50 ([1]; 72 h) | DYRK1B inhibitory activity (DYRK1B) | DYRK1A inhibitory activity (DYRK1A) | NTRK1 inhibitory activity (NTRK1) | CSNK1D inhibitory activity (CSNK1D) | IC50 (A549 (lung cancer cells)) | IC50 [2] | IC50 [3] | IC50 [4] | IC50 [5] | IC50 [1] | IC50 (A549 (lung cancer cells); Homo sapiens, 72 h) | IC50 ([2]; Homo sapiens, SK-HEP1, 72 h) | IC50 ([3]; Homo sapiens, 72 h) | IC50 ([4]; Homo sapiens, HCT-116, 72 h) | IC50 ([5]; Homo sapiens, SNU-638, 72 h) | SMILES |
| --- | --- | --- | --- | --- | --- | --- | --- | --- | --- | --- | --- | --- | --- | --- | --- | --- |
|  | ++ | ++ | ++ | +++ | 7570 nM | 7810 nM | 8830 nM | 6350 nM | 6320 nM | 9210 nM |  |  |  |  |  | Nc1ncnc2c1c(-c1ccccc1)cn2[C@@H]1S[C@H](CO)[C@@H](O)[C@H]1O [Compound 2b] |
|  | + | + | + | + | > 50000 nM | > 50000 nM | > 50000 nM | > 50000 nM | > 50000 nM | > 50000 nM |  |  |  |  |  | CCC#Cc1cn([C@@H]2S[C@H](CO)[C@@H](O)[C@H]2O)c2ncnc(N)c12 [Compound 4b] |
|  | − | − | + | + | > 50000 nM | > 50000 nM | 29600 nM | > 50000 nM | > 50000 nM | > 50000 nM |  |  |  |  |  | CC(C)(C)C#Cc1cn([C@@H]2S[C@H](CO)[C@@H](O)[C@H]2O)c2ncnc(N)c12 [Compound 4c] |
|  | − | − | ++ | + | > 50000 nM | 8310 nM | 30600 nM | > 50000 nM | > 50000 nM | > 50000 nM |  |  |  |  |  | Nc1ncnc2c1c(C#CC1CC1)cn2[C@@H]1S[C@H](CO)[C@@H](O)[C@H]1O [Compound 4d] |
|  | +++ | +++ | +++ | ++ | 6050 nM | 1070 nM | 8240 nM | 2210 nM | 3540 nM | > 50000 nM |  |  |  |  |  | Nc1ncnc2c1c(-c1ccco1)cn2[C@@H]1S[C@H](COC(=O)c2ccccc2)[C@@H](O)[C@H]1O [Compound 7a] |
| 13200 nM |  |  |  |  |  |  |  |  |  |  | 11700 nM | 10200 nM | 11200 nM | 9720 nM | 9700 nM | C#Cc1cn([C@@H]2S[C@H](CN3CCOCC3)[C@@H](O)[C@H]2O)c2ncnc(N)c12 [Compound 12a, (2R,3R,4S,5R)-2-(4-amino-5-ethynyl-7H-pyrrolo[2,3-d]pyrimidin-7-yl)-5-(morpholinomethyl)tetrahydrothiophene-3,4-diol] |
|  | +++ | +++ | +++ | +++ |  |  |  |  |  |  | 250 nM | 310 nM | 500 nM | 730 nM | 620 nM | C#Cc1cn([C@@H]2SC(=C)[C@@H](O)[C@H]2O)c2ncnc(N)c12 [Compound 12b, (2R,3R,4S)-2-(4-amino-5-ethynyl-7H-pyrrolo[2,3-d]pyrimidin-7-yl)-5-methylenetetrahydrothiophene-3,4-diol] |
